Tests used:
[1] = test system: offspring of poly I:C treated dams; experiment: PPI in offspring of poly I:C treated dams (mouse model for schizophrenia); type: in vivo
Experimental: Poly I:C administration. Rats or mice were bred, and the first day after copulation was defined as day 1 of pregnancy. On gestation day 15, pregnant animals were injected intravenously with 4.0 mg/kg poly I:C (Sigma-Aldrich, Israel) dissolved in saline, or an equivalent volume of saline as a control. Both rats and mice received the same protocol of poly I:C administration.
(§1) Prepulse Inhibition (PPI). PPI testing was performed within startle chambers purchased from Med Associates Inc (Med Associates, St. Albans, Vt., USA). PPI was analyzed as described previously (Kipnis et al., 2004). Briefly, during a period of acclimation, a 65-dB background noise was applied for 5-min, and continued throughout the test session. All sessions for testing of PPI consisted of startle trials (pulse alone, 40-ms, 120-dB), prepulse trials (prepulse 20-ms, 69, 73, 78, or 81 dB followed by a (100-ms delay) pulse), and no-stimulus trials. All sessions were presented in pseudo-random order. The average time between trials was 15 s (range 12-30 s). PPI was calculated as: % PPI=100−{[(startle response for prepulse+pulse)/(startle response for pulse-alone)]×100}. In all the experiments, there were no significant differences between groups in trials of startle reactivity to pulse alone, and in no-stimulation trials. Data from no-stimulation trials are not included in the results because the values obtained were negligible relative to values from trials containing startle stimuli. Reduced PPI is associated with schizophrenia-related behavior. The same protocol was used in mice and rats (FIG. 1A).
Kisspeptin treatment. Mice were injected i.p with 100 μl of 1/10/100 μM Kp-10 peptide (SEQ ID NO:3) (synthesized at the Weizmann Institute of Science, or Sigma-Aldrich, Israel) dissolved in PBS, 30 minutes before the PPI analysis.
The ability of a normal lymphocyte population to reverse abnormal PPI behavior in immune deficient mice, encouraged us to test whether immune cells derived from the offspring of poly I:C treated dams would reverse the abnormal behavior of SCID mice in the PPI test. […]

C57B1/6 mice = experiment: PPI in MK-801 pharmacological model of schizophrenia; type: in vivo, mouse; details: Kp-10 i.p. 100 μl of 100 μM 15 min prior to MK-801 (0.1 mg/kg)
Experimental: as §1, with “The same protocol was used in mice and rats (FIG. 1A).” left out
To further establish the antipsychotic effect of Kp-10, we evaluated its ability to overcome psychotic symptoms induced by the psycho-mimetic agent, MK-801 (N-methyl-D-aspartate (NMDA) antagonist), which induces neurotransmitter imbalance. […]

naive C57B1/6 mice = experiment: PPI in naive C57B1/6 mice; type: in vivo, mouse
Experimental: Prepulse Inhibition (PPI). PPI testing was performed within startle chambers purchased from Med Associates Inc (Med Associates, St. Albans, Vt., USA). […] Briefly, during a period of acclimation, a 65-dB background noise was applied for 5-min, and continued throughout the test session. All sessions for testing of PPI consisted of startle trials (pulse alone, 40-ms, 120-dB), prepulse trials (prepulse 20-ms, 69, 73, 78, or 81 dB followed by a (100-ms delay) pulse), and no-stimulus trials. All sessions were presented in pseudo-random order. The average time between trials was 15 s (range 12-30 s). PPI was calculated as: % PPI=100−{[(startle response for prepulse+pulse)/(startle response for pulse-alone)]×100}. […] Data from no-stimulation trials are not included in the results because the values obtained were negligible relative to values from trials containing startle stimuli.
Neurotensin receptor antagonist SR142948 (TOCRIS COOKSON LTD) was used at 100 μg/kg 60 min before the PPI analysis.
GnRH receptor antagonist Cetrorelix Acetate (Cetrotide™, Anaspec Inc. Fremont, Calif.). Control mice were administered the same volume of PBS.
To examine whether Kp-10 can elevate PPI in naïve mice in a dose dependent manner, we analyzed PPI in C57B1/6 mice that were injected i.p with 100 μl of 1/10/100 μM Kp-10 (SEQ ID NO:3).

SCID mice = experiment: Radial arm water maze (RAWM); type: in vivo, mouse; details: i.p. 100 μl containing 100 μM at beginning of each of two days, vs PBS
Experimental: Radial arm water maze (RAWM). Mice were tested for two days on 6 radial arm water maze paradigm in a water pool, as described in Alamed et al. (2006). Briefly, mice received Kp-10 injection in the beginning of each day. On the first day, 15 trials were performed, in trials 1, 3, 5, 7, 9 and 11 the platform was visible, and in all other trials the platform was hidden. On the second day, 12 trials were performed, all of them with hidden platform. The time required to reach the platform and the number of errors (incorrect arm entries) in 1-min time period were recorded (FIG. 11A).
One of the cognitive malfunctions in schizophrenia is deficit in spatial learning and memory. To evaluate whether kisspeptine can improve spatial learning and memory, we studied its effect in the radial arm water maze (RAWM), a hippocampal dependent spatial learning and memory assay. In this task, the mouse must find a platform that is located at one of the six maze arms; the time required to reach the platform and the number of errors along the way are recorded (Alamed et al., 2006) (FIG. 11A). Since wild type mice perform well in this test, the ability of Kp-10 to improve their performance is very limited. Therefore we used immune deficient mice (severe combined immunodeficiency; SCID), which have cognitive deficit manifested by poorer performance in the RAWM test. […]

BDNF = details: hippocampal slices; cited from earlier work
GPR54 = GPR54 (Mus musculus, UniProt Q91V45); details: in vivo; cited from earlier work
Sequence of GPR54 (Q91V45 whole entry): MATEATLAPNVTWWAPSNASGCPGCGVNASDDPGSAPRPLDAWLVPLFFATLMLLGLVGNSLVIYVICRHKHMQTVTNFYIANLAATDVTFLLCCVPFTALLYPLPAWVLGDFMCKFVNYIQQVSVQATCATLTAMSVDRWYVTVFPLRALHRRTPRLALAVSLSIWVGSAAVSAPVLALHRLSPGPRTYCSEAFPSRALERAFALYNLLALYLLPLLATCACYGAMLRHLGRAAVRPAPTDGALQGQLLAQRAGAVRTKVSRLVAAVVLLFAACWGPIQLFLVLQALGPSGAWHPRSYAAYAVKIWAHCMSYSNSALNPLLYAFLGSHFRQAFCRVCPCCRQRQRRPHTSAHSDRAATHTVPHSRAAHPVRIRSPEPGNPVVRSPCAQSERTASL

In the case of YNWNSFGLRF—NH2 [Kp-10], the “PPI at adulthood (12 weeks)” value ([1]; single i.p. injection at adolescence (8 weeks), 100 μl containing 100 μM, vs PBS) is reported as “did not exhibit abnormal PPI”, the PPI ([1]; treatment at adulthood (12 weeks) after onset, 100 μl of 100 μM, 30 min before PPI) is reported as “improved the abnormal PPI” and the PPI levels (C57B1/6 mice) is reported as “improved the PPI levels”. The PPI (naive C57B1/6 mice; 100 μl of 1000 μM, small group, data not shown, vs PBS) was “no improvement was detected”, the PPI (naive C57B1/6 mice; female C57B1/6 mice, single dose 100 μl of 100 μM) was “significantly increased the PPI” and the “PPI 24 hours after administration (ANOVA of percent PPI)” value (naive C57B1/6 mice; male mice, 100 μl of 100 μM) was “no significant main effect of the treatment”. The “duration of the effect on PPI” value (naive C57B1/6 mice; male mice, 100 μl of 100 μM) was “less than 24 hours”, the “PPI after repeated injection” value (naive C57B1/6 mice; male mice, repeated injection 24 hours after the first) was “induced the elevation of the PPI again” and the “PPI after repeated injection” value (naive C57B1/6 mice; male mice, repeated injection 7 days after the first) was “induced the elevation of the PPI again”. The PPI at adulthood (naive C57B1/6 mice; naive animals, single injection at adolescence, vs PBS) was “no differences between the Kp-10 and the PBS treated mice”, the PPI (naive C57B1/6 mice; naive male mice, i.p. 100 μl of 1 μM, vs PBS) was “improved PPI but the improvement was not statistically significant” and the PPI (naive C57B1/6 mice; naive male mice, i.p. 100 μl of 10 μM, vs PBS) was “significantly increased PPI”. For the same substance, the PPI (naive C57B1/6 mice; naive male mice, i.p. 100 μl of 100 μM, vs PBS) was “significantly increased PPI”, the “latency time to find the platform” value (SCID mice) was “improved” and the number of errors (SCID mice) was “reduced”. The “BDNF mRNA levels” value (BDNF) was “elevate BDNF mRNA levels” and the GPR54 activation (GPR54) was “activate GPR54 in vivo”.

From patent US8716228B2, “GPR54 agonists or antagonists for treatment of diseases presenting behavioral abnormalities” (YEDA Research and Development Co. Ltd., priority 2009, dated 2014)
